Experimental data published in article PMC5218480 (PLoS ONE, 2017).

Test system: MV-4-11 cells
Experiment: Gene expression microarray analysis (Affymetrix PrimeView) and GSEA
Format: cell-based, human
Design: RFU PODN (11730768_x_at) / Fold change /veh PODN (11730768_x_at) / RFU LINC00158 (11744669_a_at) / Fold change /veh LINC00158 (11744669_a_at) / RFU DUSP10 (11751237_a_at) / Fold change /veh DUSP10 (11751237_a_at) / RFU ID3 (11757404_x_at) / Fold change /veh ID3 (11757404_x_at) / RFU PLEKHG5 (11737974_s_at) / Fold change /veh PLEKHG5 (11737974_s_at) / RFU LRRC4B (11730491_at) / Fold change /veh LRRC4B (11730491_at) / RFU GIMAP4 (11747438_a_at) / Fold change /veh GIMAP4 (11747438_a_at) / RFU KRT8 (11758183_x_at) / Fold change /veh KRT8 (11758183_x_at) / RFU CNN1 (11734310_a_at) / Fold change /veh CNN1 (11734310_a_at) / RFU VPS37D (11726825_at) / Fold change /veh VPS37D (11726825_at) / RFU C10orf10 (11716522_x_at) / Fold change /veh C10orf10 (11716522_x_at) / RFU KIR2DL2 /// KIR2DL4 /// KIR2DL5A /// KIR2DL5B /// KIR2DS1 /// KIR2DS2 /// KIR2DS3 /// KIR2DS4 /// KIR3DL3 /// KIR3DL3 /// KIR3DS1 (11738374_at) / Fold change /veh KIR2DL2 /// KIR2DL4 /// KIR2DL5A /// KIR2DL5B /// KIR2DS1 /// KIR2DS2 /// KIR2DS3 /// KIR2DS4 /// KIR3DL3 /// KIR3DL3 /// KIR3DS1 (11738374_at) / RFU C1QL1 (11718748_at) / Fold change /veh C1QL1 (11718748_at) / RFU TMPRSS4 (11747572_a_at) / Fold change /veh TMPRSS4 (11747572_a_at) / RFU HAMP (11756126_x_at) / Fold change /veh HAMP (11756126_x_at) / RFU RNFT2 (11725882_a_at) / Fold change /veh RNFT2 (11725882_a_at) / RFU NR4A2 (11747474_a_at) / Fold change /veh NR4A2 (11747474_a_at) / RFU ABCC12 (11746883_a_at) / Fold change /veh ABCC12 (11746883_a_at) / RFU TMEM136 (11760407_x_at) / Fold change /veh TMEM136 (11760407_x_at) / RFU CLDN22 /// WWC2 (11732394_at) / Fold change /veh CLDN22 /// WWC2 (11732394_at) / RFU HLA-DPB1 (11760878_x_at) / Fold change /veh HLA-DPB1 (11760878_x_at) / RFU SPINT1 (11716480_a_at) / Fold change /veh SPINT1 (11716480_a_at) / RFU GAP43 (11754022_s_at) / Fold change /veh GAP43 (11754022_s_at) / RFU A4GNT (11735810_at) / Fold change /veh A4GNT (11735810_at) / RFU PRB3 (11715151_x_at) / Fold change /veh PRB3 (11715151_x_at) / RFU TUBB4B (11761932_at) / Fold change /veh TUBB4B (11761932_at) / RFU CAPN14 (11732068_a_at) / Fold change /veh CAPN14 (11732068_a_at) / RFU TMCC2 (11721928_a_at) / Fold change /veh TMCC2 (11721928_a_at) / RFU IRGQ (11745062_a_at) / Fold change /veh IRGQ (11745062_a_at) / RFU FAM174B (11720279_a_at) / Fold change /veh FAM174B (11720279_a_at) / RFU TMPRSS4 (11748680_a_at) / Fold change /veh TMPRSS4 (11748680_a_at) / RFU FAM212B (11763350_a_at) / Fold change /veh FAM212B (11763350_a_at) / RFU PLEKHG5 (11743358_a_at) / Fold change /veh PLEKHG5 (11743358_a_at) / RFU ZSCAN30 (11745921_a_at) / Fold change /veh ZSCAN30 (11745921_a_at) / RFU CMKLR1 (11741424_a_at) / Fold change /veh CMKLR1 (11741424_a_at) / RFU LOC101060620 /// MAPK8IP1 (11723275_at) / Fold change /veh LOC101060620 /// MAPK8IP1 (11723275_at) / RFU SPTSSB (11747773_x_at) / Fold change /veh SPTSSB (11747773_x_at) / RFU PRSS12 (11739890_at) / Fold change /veh PRSS12 (11739890_at) / RFU BIN1 (11741810_x_at) / Fold change /veh BIN1 (11741810_x_at) / RFU WNT11 (11732464_a_at) / Fold change /veh WNT11 (11732464_a_at) / RFU C10orf10 (11716521_a_at) / Fold change /veh C10orf10 (11716521_a_at) / RFU C5orf56 (11738089_at) / Fold change /veh C5orf56 (11738089_at) / RFU CYB561 (11721691_x_at) / Fold change /veh CYB561 (11721691_x_at) / RFU ANKRD19P (11752326_a_at) / Fold change /veh ANKRD19P (11752326_a_at) / RFU OR2T12 /// OR2T33 /// OR2T8 (11738714_s_at) / Fold change /veh OR2T12 /// OR2T33 /// OR2T8 (11738714_s_at) / RFU VCAN (11748164_a_at) / Fold change /veh VCAN (11748164_a_at) / RFU JSRP1 (11732532_at) / Fold change /veh JSRP1 (11732532_at) / RFU KRTAP10-11 (11738290_x_at) / Fold change /veh KRTAP10-11 (11738290_x_at) / RFU MYO3A (11730013_a_at) / Fold change /veh MYO3A (11730013_a_at) / RFU EBF3 (11725865_a_at) / Fold change /veh EBF3 (11725865_a_at) / RFU CAMK2N1 (11719241_x_at) / Fold change /veh CAMK2N1 (11719241_x_at) / RFU C5orf56 (11738088_a_at) / Fold change /veh C5orf56 (11738088_a_at) / RFU OLFML3 (11715873_a_at) / Fold change /veh OLFML3 (11715873_a_at) / RFU LOC100653217 /// NTM (11731650_a_at) / Fold change /veh LOC100653217 /// NTM (11731650_a_at) / RFU MAPK11 (11762145_a_at) / Fold change /veh MAPK11 (11762145_a_at) / RFU FIZ1 (11724087_x_at) / Fold change /veh FIZ1 (11724087_x_at) / RFU OASL (11726364_x_at) / Fold change /veh OASL (11726364_x_at) / RFU SOX15 (11748057_x_at) / Fold change /veh SOX15 (11748057_x_at) / RFU CD79A (11719716_a_at) / Fold change /veh CD79A (11719716_a_at) / RFU HIST1H1D (11736915_at) / Fold change /veh HIST1H1D (11736915_at) / RFU CASKIN2 (11723855_a_at) / Fold change /veh CASKIN2 (11723855_a_at) / RFU LOC730098 (11760151_x_at) / Fold change /veh LOC730098 (11760151_x_at) / RFU OR4N2 (11742367_at) / Fold change /veh OR4N2 (11742367_at) / RFU PRRT2 (11749266_a_at) / Fold change /veh PRRT2 (11749266_a_at) / RFU SNX32 (11753110_a_at) / Fold change /veh SNX32 (11753110_a_at) / RFU CDHR5 (11726645_a_at) / Fold change /veh CDHR5 (11726645_a_at) / RFU RCAN1 (11760418_a_at) / Fold change /veh RCAN1 (11760418_a_at) / RFU FAM167A (11723789_a_at) / Fold change /veh FAM167A (11723789_a_at) / RFU FAM26E (11764081_at) / Fold change /veh FAM26E (11764081_at) / RFU ISYNA1 (11749810_s_at) / Fold change /veh ISYNA1 (11749810_s_at) / RFU ACY1 (11761880_at) / Fold change /veh ACY1 (11761880_at) / RFU 11764098_at / Fold change /veh 11764098_at / RFU SAMD14 (11745864_x_at) / Fold change /veh SAMD14 (11745864_x_at) / RFU NPB (11741838_a_at) / Fold change /veh NPB (11741838_a_at) / RFU TMPRSS6 (11731388_a_at) / Fold change /veh TMPRSS6 (11731388_a_at) / RFU KRTAP10-2 (11738614_at) / Fold change /veh KRTAP10-2 (11738614_at) / RFU ARHGAP8 /// PRR5-ARHGAP8 (11727945_x_at) / Fold change /veh ARHGAP8 /// PRR5-ARHGAP8 (11727945_x_at) / RFU KRTAP5-7 /// NADSYN1 (11734609_at) / Fold change /veh KRTAP5-7 /// NADSYN1 (11734609_at) / RFU RASL12 (11751679_a_at) / Fold change /veh RASL12 (11751679_a_at) / RFU CDKN2B (11736163_a_at) / Fold change /veh CDKN2B (11736163_a_at) / RFU PRF1 (11729649_at) / Fold change /veh PRF1 (11729649_at) / RFU, ZNF638 /// ZNF638-IT1 / Fold change vs veh, ZNF638 /// ZNF638-IT1 / RFU, PANK3 / Fold change vs veh, PANK3 / RFU, SH3YL1 / Fold change vs veh, SH3YL1 / RFU, ZEB2 / Fold change vs veh, ZEB2 / RFU, NRIP1 / Fold change vs veh, NRIP1 / RFU, PTTG1IP / Fold change vs veh, PTTG1IP / RFU, CAPN2 / Fold change vs veh, CAPN2 / RFU, MED14 / Fold change vs veh, MED14 / RFU, SNORA58 / Fold change vs veh, SNORA58 / RFU, C1orf63 / Fold change vs veh, C1orf63 / RFU, LRRFIP1 / Fold change vs veh, LRRFIP1 / RFU, NDUFAF7 / Fold change vs veh, NDUFAF7 / RFU, SLC12A2 / Fold change vs veh, SLC12A2 / RFU, IBTK / Fold change vs veh, IBTK / RFU, ESF1 / Fold change vs veh, ESF1 / Fold change vs veh, TMEM50B / RFU, TAOK1 / Fold change vs veh, TAOK1 / RFU, ACBD3 / Fold change vs veh, ACBD3 / RFU, TMA16 / Fold change vs veh, TMA16 / RFU, RWDD3 / Fold change vs veh, RWDD3 / RFU, BCAT1 / Fold change vs veh, BCAT1 / RFU, EDEM3 / Fold change vs veh, EDEM3 / RFU, TMEM33 / Fold change vs veh, TMEM33 / RFU, WDR75 / Fold change vs veh, WDR75 / RFU, AHCTF1 / Fold change vs veh, AHCTF1 / RFU, TFRC / Fold change vs veh, TFRC / RFU, ZDHHC17 / Fold change vs veh, ZDHHC17 / RFU, NOM1 / Fold change vs veh, NOM1 / RFU, ARL8B / Fold change vs veh, ARL8B / RFU, ZBTB11 / Fold change vs veh, ZBTB11 / RFU, TAMM41 / Fold change vs veh, TAMM41 / RFU, KIAA1704 /// LOC100996395 / Fold change vs veh, KIAA1704 /// LOC100996395 / RFU, ING1 / Fold change vs veh, ING1 / RFU, TRMT61B / Fold change vs veh, TRMT61B / RFU, FUBP3 / Fold change vs veh, FUBP3 / RFU, TP53 / Fold change vs veh, TP53 / RFU, TNKS2 / Fold change vs veh, TNKS2 / RFU, ZFP14 / Fold change vs veh, ZFP14 / RFU, ACTR2 / Fold change vs veh, ACTR2 / RFU, PPP3R1 / Fold change vs veh, PPP3R1 / RFU, PIK3R1 / Fold change vs veh, PIK3R1 / RFU, HNRNPA1 / Fold change vs veh, HNRNPA1 / RFU, RNF170 / Fold change vs veh, RNF170 / RFU, ZNF28 / Fold change vs veh, ZNF28 / RFU, RNGTT / Fold change vs veh, RNGTT / RFU, OGT / Fold change vs veh, OGT / RFU, BRD1 / Fold change vs veh, BRD1 / RFU, MARS / Fold change vs veh, MARS / RFU, ZNF655 / Fold change vs veh, ZNF655 / RFU, FAHD1 / Fold change vs veh, FAHD1 / RFU, BDP1 / Fold change vs veh, BDP1 / RFU, LRRCC1 / Fold change vs veh, LRRCC1 / RFU, ARID1A / Fold change vs veh, ARID1A / RFU, ZNF146 / Fold change vs veh, ZNF146 / RFU, ZNF330 / Fold change vs veh, ZNF330 / RFU, GPN3 / Fold change vs veh, GPN3 / RFU, C9orf123 / Fold change vs veh, C9orf123 / RFU, N4BP2L2 / Fold change vs veh, N4BP2L2 / RFU, ARFIP1 / Fold change vs veh, ARFIP1 / RFU, FAM179B / Fold change vs veh, FAM179B / RFU, BCL10 / Fold change vs veh, BCL10 / RFU, UHRF1BP1L / Fold change vs veh, UHRF1BP1L / RFU, BET1 / Fold change vs veh, BET1 / RFU, CNOT2 / Fold change vs veh, CNOT2 / RFU, ZNF268 / Fold change vs veh, ZNF268 / Fold change vs veh, ZNF507 / RFU, DGCR2 / Fold change vs veh, DGCR2 / RFU, WDSUB1 / Fold change vs veh, WDSUB1 / Fold change vs veh, HSP90B1 /// MIR3652 / RFU, ADSS / Fold change vs veh, ADSS / RFU, GK / Fold change vs veh, GK / RFU, ZNF148 / Fold change vs veh, ZNF148 / RFU, TAF9 / Fold change vs veh, TAF9 / RFU, SLC1A5 / Fold change vs veh, SLC1A5 / RFU, SLMO2 / Fold change vs veh, SLMO2 / RFU, ABCC4 / Fold change vs veh, ABCC4 / RFU, LOC101060439 /// RAP1B / Fold change vs veh, LOC101060439 /// RAP1B / RFU, RFX7 / Fold change vs veh, RFX7 / RFU, GTPBP10 / Fold change vs veh, GTPBP10 / RFU, CNEP1R1 / Fold change vs veh, CNEP1R1 / RFU, BIVM-ERCC5 /// ERCC5 / Fold change vs veh, BIVM-ERCC5 /// ERCC5 / RFU, ILF3 / Fold change vs veh, ILF3 / RFU 11762660_at / Fold change /veh 11762660_at / RFU VCAN (11757783_s_at) / Fold change /veh VCAN (11757783_s_at) / RFU DDX43 (11728927_at) / Fold change /veh DDX43 (11728927_at) / RFU KRT8 (11758188_x_at) / Fold change /veh KRT8 (11758188_x_at) / RFU NKD1 (11759106_at) / Fold change /veh NKD1 (11759106_at) / RFU SRD5A1 (11742802_a_at) / Fold change /veh SRD5A1 (11742802_a_at) / RFU TPSAB1 /// TPSB2 (11721975_s_at) / Fold change /veh TPSAB1 /// TPSB2 (11721975_s_at) / RFU GSTM3 (11746129_a_at) / Fold change /veh GSTM3 (11746129_a_at) / RFU IL23R (11737362_x_at) / Fold change /veh IL23R (11737362_x_at) / RFU TMEM51 (11727254_a_at) / Fold change /veh TMEM51 (11727254_a_at) / RFU PIWIL2 (11732686_x_at) / Fold change /veh PIWIL2 (11732686_x_at) / RFU ORM1 (11744905_x_at) / Fold change /veh ORM1 (11744905_x_at) / RFU CCDC152 (11743942_at) / Fold change /veh CCDC152 (11743942_at) / RFU ECM1 (11717891_a_at) / Fold change /veh ECM1 (11717891_a_at) / RFU IL23R (11748794_a_at) / Fold change /veh IL23R (11748794_a_at) / RFU TNFAIP8L3 (11732012_x_at) / Fold change /veh TNFAIP8L3 (11732012_x_at) / RFU MBOAT4 (11741988_at) / Fold change /veh MBOAT4 (11741988_at) / RFU 11764193_at / Fold change /veh 11764193_at / RFU TMEM53 (11763286_at) / Fold change /veh TMEM53 (11763286_at) / RFU MAGEB2 (11727129_at) / Fold change /veh MAGEB2 (11727129_at) / RFU TMEM200A (11744735_a_at) / Fold change /veh TMEM200A (11744735_a_at) / RFU CCDC152 (11751479_a_at) / Fold change /veh CCDC152 (11751479_a_at) / RFU FAM211A (11726209_a_at) / Fold change /veh FAM211A (11726209_a_at) / RFU RGS16 (11746705_a_at) / Fold change /veh RGS16 (11746705_a_at) / RFU VCAN (11755009_s_at) / Fold change /veh VCAN (11755009_s_at) / RFU RHOB (11743442_s_at) / Fold change /veh RHOB (11743442_s_at) / RFU RGS16 (11720943_a_at) / Fold change /veh RGS16 (11720943_a_at) / RFU RGS16 (11720944_at) / Fold change /veh RGS16 (11720944_at) / RFU, VPS4B / Fold change vs veh, VPS4B / RFU, CREB1 / Fold change vs veh, CREB1 / RFU, DNAJC13 / Fold change vs veh, DNAJC13 / RFU, GNAQ / Fold change vs veh, GNAQ / RFU, CDK5R1 / Fold change vs veh, CDK5R1 / RFU, ZRANB3 / Fold change vs veh, ZRANB3 / RFU, CUL4A / Fold change vs veh, CUL4A / RFU, CCNY / Fold change vs veh, CCNY / RFU, UFL1 / Fold change vs veh, UFL1 / RFU, COG3 / Fold change vs veh, COG3 / RFU, DIAPH2 / Fold change vs veh, DIAPH2 / RFU, SKA2 / Fold change vs veh, SKA2 / RFU, AFF3 / Fold change vs veh, AFF3 / RFU, LMF1 / Fold change vs veh, LMF1 / RFU, IPO11 / Fold change vs veh, IPO11 / RFU, DFFB / Fold change vs veh, DFFB / RFU, FOXP1 / Fold change vs veh, FOXP1 / RFU, CARD8 / Fold change vs veh, CARD8 / RFU, STRN3 / Fold change vs veh, STRN3 / RFU, ADK / Fold change vs veh, ADK / RFU, RASSF2 / Fold change vs veh, RASSF2 / RFU, WIPF1 / Fold change vs veh, WIPF1 / RFU, LARP1B / Fold change vs veh, LARP1B / RFU, RASA1 / Fold change vs veh, RASA1 / RFU, RB1 / Fold change vs veh, RB1 / RFU, PPFIA1 / Fold change vs veh, PPFIA1 / RFU, MAT2A / Fold change vs veh, MAT2A / RFU, CCT5 / Fold change vs veh, CCT5 / RFU, WDR92 / Fold change vs veh, WDR92 / RFU, CUX1 / Fold change vs veh, CUX1 / RFU, TTC7A / Fold change vs veh, TTC7A / RFU, TMEM135 / Fold change vs veh, TMEM135 / RFU, DEPTOR / Fold change vs veh, DEPTOR / RFU, CPM / Fold change vs veh, CPM / RFU, DNAJB6 / Fold change vs veh, DNAJB6 / RFU, CACNA2D3 / Fold change vs veh, CACNA2D3 / RFU, DTX4 / Fold change vs veh, DTX4 / RFU, TFCP2 / Fold change vs veh, TFCP2 / RFU, GMCL1 /// GMCL1P1 / Fold change vs veh, GMCL1 /// GMCL1P1 / RFU, AEBP2 / Fold change vs veh, AEBP2 / RFU, SNHG1 /// SNORD22 /// SNORD25 /// SNORD26 /// SNORD27 /// SNORD28 /// SNORD29 /// SNORD31 / Fold change vs veh, SNHG1 /// SNORD22 /// SNORD25 /// SNORD26 /// SNORD27 /// SNORD28 /// SNORD29 /// SNORD31 / Fold change (Aza/veh), C12orf56 (ProbeSet 11735607_a_at) / Fold change (ACY-1035/veh), C12orf56 (ProbeSet 11735607_a_at) / Fold change (Aza/veh), FGFR1OP (ProbeSet 11751329_s_at) / Fold change (ACY-1035/veh), FGFR1OP (ProbeSet 11751329_s_at) / Fold change (Aza/veh), VPS36 (ProbeSet 11739960_a_at) / Fold change (ACY-1035/veh), VPS36 (ProbeSet 11739960_a_at) / RFU SYPL1 (11715823_x_at) / Fold change /veh SYPL1 (11715823_x_at) / RFU IGFBP7 (11715501_s_at) / Fold change /veh IGFBP7 (11715501_s_at) / RFU REEP3 (11722064_at) / Fold change /veh REEP3 (11722064_at) / RFU IGLL1 (11728026_x_at) / Fold change /veh IGLL1 (11728026_x_at): dose or concentration left out as unconfirmed
Details: MV-4-11 cells, 48 hours

Nc1ccc(-c2cccs2)cc1NC(=O)c1ccc2c(c1)cc(C1CC1)n2CCN1CCOCC1 [ACY-1035]
RFU ISYNA1 (11749810_s_at): 21.49 RFU
